Data from ChEMBL document CHEMBL1201862, “PubChem BioAssay data set” (2004).
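How tested: cells in 96-well plates exposed to compound for 48 hours at five concentrations. GI50 marks 50% less growth.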 Calls of active or inactive are those of the source. No stated cut-off is given here; in the data, active = GI50 up to about 1.1 µM and inactive = higher.

Experiments:
Assay in all cases: NCI-60 cell line screen, 48 h
786-0 = system: 786-0
A498 = system: A498
A549 = system: A549
CAKI-1 = system: CAKI-1
CCRF-CEM = system: CCRF-CEM
COLO 205 = system: COLO 205
DLD-1 = system: DLD-1
DMS-273 = system: DMS-273
EKVX = system: EKVX
HCC 2998 = system: HCC 2998
HCT-116 = system: HCT-116
HCT-15 = system: HCT-15
HL-60 = system: HL-60
HOP-62 = system: HOP-62
HT-29 = system: HT-29
IGROV-1 = system: IGROV-1
K562 = system: K562
KM-20L2 = system: KM-20L2
KM12 = system: KM12
LOX IMVI = system: LOX IMVI
LXFL 529 = system: LXFL 529
M14 = system: M14
M19-MEL = system: M19-MEL
MOLT-4 = system: MOLT-4
Malme-3M = system: Malme-3M
NCI-H23 = system: NCI-H23
NCI-H460 = system: NCI-H460
NCI-H522 = system: NCI-H522
OVCAR-3 = system: OVCAR-3
OVCAR-4 = system: OVCAR-4
OVCAR-5 = system: OVCAR-5
OVCAR-8 = system: OVCAR-8
RPMI-8226 = system: RPMI-8226
SF-268 = system: SF-268
SF-295 = system: SF-295
SF-539 = system: SF-539
SK-MEL-28 = system: SK-MEL-28
SK-MEL-2 = system: SK-MEL-2
SK-MEL-5 = system: SK-MEL-5
SK-OV-3 = system: SK-OV-3
SN12C = system: SN12C
SNB-19 = system: SNB-19
SNB-75 = system: SNB-75
SNB-78 = system: SNB-78
SW-620 = system: SW-620
TK-10 = system: TK-10
U-251 = system: U-251
UACC-257 = system: UACC-257
UACC-62 = system: UACC-62
UO-31 = system: UO-31
XF498 = system: XF498

Measured: GI50

COc1ccc(CNc2nc3cc(C(F)(F)F)ccc3nc2C)cc1OC
inactive: 786-0 22 µM | A498 24.3 µM | A549 32.1 µM | CAKI-1 33 µM | CCRF-CEM 31.9 µM | COLO 205 32.9 µM | DLD-1 35.7 µM | DMS-273 20 µM | EKVX 20.2 µM | HCC 2998 17.9 µM | HCT-116 26.2 µM | HL-60 19.9 µM | HOP-62 20.8 µM | HT-29 39.9 µM | IGROV-1 31 µM | K562 29.1 µM | KM-20L2 44.1 µM | KM12 23.7 µM | LOX IMVI 24.9 µM | LXFL 529 35.8 µM | M14 20.3 µM | M19-MEL 32.8 µM | MOLT-4 17.3 µM | Malme-3M 20.1 µM | NCI-H23 35.7 µM | NCI-H460 30.1 µM | NCI-H522 21.9 µM | OVCAR-3 32.5 µM | OVCAR-4 12 µM | OVCAR-5 37.5 µM | OVCAR-8 30.3 µM | RPMI-8226 27.1 µM | SF-268 33.3 µM | SF-295 34.4 µM | SF-539 29.2 µM | SK-MEL-28 44.1 µM | SK-MEL-2 19.5 µM | SK-MEL-5 17.3 µM | SK-OV-3 36.7 µM | SN12C 30.5 µM | SNB-19 41.6 µM | SNB-75 18.5 µM | SNB-78 12.2 µM | SW-620 37.9 µM | TK-10 24.3 µM | U-251 37 µM | UACC-257 19 µM | UACC-62 31.6 µM | UO-31 24 µM | XF498 35.3 µM
34.8 µM: HCT-15
